Data: patent US20040019091A1, “Triazole derivatives and pharmaceutical compositions comprising them” (priority 2000, published 2004)

How the values were obtained:
[1] = biological target: T1, 3T3 cells expressing the human CCK1 receptor (Homo sapiens, UniProt P32238); assay: mobilization of intracellular calcium ([Ca++]i), Fura-2; type: cell-based; conditions: read-out: EC50 [Ca++]i release
T1 construct: expressed in transfected cells; host or cells: 3T3 cells
T1 sequence (P32238 1-428): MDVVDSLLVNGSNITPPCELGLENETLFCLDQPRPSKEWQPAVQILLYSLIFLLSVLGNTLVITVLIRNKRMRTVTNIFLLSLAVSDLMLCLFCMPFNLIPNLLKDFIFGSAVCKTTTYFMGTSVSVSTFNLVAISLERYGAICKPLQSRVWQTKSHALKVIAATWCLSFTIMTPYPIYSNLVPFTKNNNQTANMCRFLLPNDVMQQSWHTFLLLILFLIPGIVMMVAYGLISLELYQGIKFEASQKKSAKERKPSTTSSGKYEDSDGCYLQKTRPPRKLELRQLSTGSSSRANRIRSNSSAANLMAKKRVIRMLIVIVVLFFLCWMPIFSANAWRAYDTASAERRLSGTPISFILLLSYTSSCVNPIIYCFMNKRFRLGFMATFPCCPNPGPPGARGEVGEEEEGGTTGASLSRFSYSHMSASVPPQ
Procedure: their CCK1 receptor agonist property, by way of their capacity to induce mobilization of intracellular calcium in vitro in 3T3 cells expressing the human CCK1 receptor;
(§1) The compounds of formula (I) underwent studies of in vitro binding to CCK1 and CCK2 receptors, using the method described in Europ. J. Pharmacol., 1993, 232, 13-19. […] The agonist activity of the compounds towards CCK1 receptors was evaluated in vitro in 3T3 cells expressing the human CCK1 receptor, by measuring the mobilization of the intracellular calcium ([Ca^++]i), according to a technique derived from that of Lignon M F et al., Eur. J. Pharmacol., 1993, 245, 241-245. The calcium concentration [Ca^++]i is evaluated with Fura-2 by the double excitation wavelength method. The ratio of the fluorescence emitted at two wavelengths gives the concentration of [Ca^++]i, after calibration (Grynkiewiez G. et al., J. Biol. Chem., 1985, 260, 3440-3450).

[2] = biological target: T2, human CCK1 receptor (Homo sapiens, UniProt P32238); assay: in vitro binding to CCK1 receptor ([125I]-CCK displacement)
T2 construct: expressed in transfected cells; host or cells: 3T3 cells
T2 sequence (P32238 1-428): T1 sequence (P32238 1-428)
Procedure: their potentiality for displacing [^125I]-CCK from its binding sites present in rat pancreatic membranes (CCK1 receptor) or 3T3 cells expressing recombinant human CCK1 receptor;
as §1

[3] = biological target: T3, human CCK2 receptor (Homo sapiens, UniProt P32239); assay: in vitro binding to CCK2 receptor; conditions: read-out: IC50 (affinity, human CCK2 receptor)
T3 sequence (P32239 1-447): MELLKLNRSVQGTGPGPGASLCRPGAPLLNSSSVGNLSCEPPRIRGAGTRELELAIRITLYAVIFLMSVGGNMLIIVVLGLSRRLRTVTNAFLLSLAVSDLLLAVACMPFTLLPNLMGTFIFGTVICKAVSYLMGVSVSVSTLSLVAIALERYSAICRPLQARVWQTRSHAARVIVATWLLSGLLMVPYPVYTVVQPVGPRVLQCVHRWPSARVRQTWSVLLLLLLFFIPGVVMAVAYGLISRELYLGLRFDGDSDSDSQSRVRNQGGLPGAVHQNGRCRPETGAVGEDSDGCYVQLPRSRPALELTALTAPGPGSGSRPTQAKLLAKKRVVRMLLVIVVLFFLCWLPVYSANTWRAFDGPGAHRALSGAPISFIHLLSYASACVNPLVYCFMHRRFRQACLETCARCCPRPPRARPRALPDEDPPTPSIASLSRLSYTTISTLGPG
Procedure: their selectivity for the CCK2 receptor;
as §1

[4] = system: gastric emptying; assay: gastric emptying of a charcoal meal in the mouse, oral route; type: in vivo, Female Swiss albino CD1 mice; conditions: p.o., 60 minutes before charcoal meal, read-out: ED50 inhibition of gastric emptying
Procedure: their agonist effect by the oral route on gastric drainage in the mouse.
An in vivo study of the agonist effect of the compounds on gastric emptying was carried out as follows. Female Swiss albino CD1 mice (20-25 g) are placed on a solid fast for 18 hours. On the day of the experiment, the products are administered orally 60 minutes before the administration of a charcoal meal (0.3 ml per mouse of a suspension in water of 10% charcoal powder, 5% gum arabic and 1% carboxymethylcellulose). The mice are sacrificed 5 minutes later by cervical dislocation, and the gastric emptying is defined as the presence of charcoal in the intestine beyond the pyloric sphincter (Europ. J. Pharmacol., 1993, 232, 13-19).

COc1cc(-c2nc(NC(=O)c3cc4c(C)c(C)c(OC)cc4n3CCC(=O)[O-])nn2CCC2CCCCC2)c(OC)cc1C.[K+] [Example 1, 3-[2-[[[1-(2-cyclohexylethyl)-5-(2,5-dimethoxy-4-methylphenyl)-1H-1,2,4-triazol-3-yl]amino]carbonyl]-6-methoxy-4,5-dimethyl-1H-indol-1-yl]propionic acid, Potassium Salt]
EC50 [1]: ~1 nM | IC50 ([2]; human CCK1 receptor, read-out: IC50 (affinity, human CCK1 receptor)): 0.4 nM | selectivity (affinity CCK1 receptor versus affinity of CCK2 receptor) ([2]; human CCK1 versus human CCK2): > 500 fold | IC50 [3]: 234 nM

COc1cc(-c2nc(NC(=O)c3cc4c(C)c(C)c(OC)cc4n3CCC(=O)O)nn2CCC2CCCCC2)c(OC)cc1C.NCCO [Example 3, 3-[2-[[[1-(2-cyclohexylethyl)-5-(2,5-dimethoxy-4-methylphenyl)-1H-1,2,4-triazol-3-yl]amino]carbonyl]-6-methoxy-4,5-dimethyl-1H-indol-1-yl]propionic acid ethanolamine salt]
ED50 [4]: 0.027 mg/kg

CCNCC.COc1cc(-c2nc(NC(=O)c3cc4c(C)c(C)c(OC)cc4n3CCC(=O)O)nn2CCC2CCCCC2)c(OC)cc1C
melting point: 143 °C (dec.)
